Measured values from patent publication US10449258B2, “Antibody drug conjugate, intermediate, preparation method, pharmaceutical composition and uses thereof” (XDCEXPLORER (SHANGHAI) CO., LTD., priority 2015, dated 2019).
Read-outs that look alike come from different tables or passages of the source.

Legend:
[1] = system: Her2 low expression human MCF-7 breast tumor cells; assay: Cytotoxicity assay (growth inhibition, CellTiter-Glo) on MCF-7
Description: (§1) Her2-positive human BT474 breast tumor cells (BT474 for short), Her2 low expression human MCF-7 breast tumor cells (MCF-7 for short), and human breast tumor cell strain MCF7-Her2 with stable-transfected Her2 outside MCF-7 (MCF-7-Her2 for short) were used (they were prepared by the methods disclosed in the literatures for preparing recombinant cells: Teemu T. Junttila, et al., Breast. Cancer Res. Treat., 2011, 128, 347 and Jeffrey J. Wallin et al., Clin. Cancer Res., 2012, 18, 3901, the contents of which are incorporated herein by reference in their entireties). The growth inhibition of tumor cells by T-CE-040 and T-CE-063 antibody drug conjugates were evaluated. BT474, MCF7-Her2 and MCF-7 were digested with 0.25% (v/v) trypsin and the cells were stripped and then suspended in 100 μL complete medium. 2,000 cells were inoculated in a 96-well plate and cultured, grew adherently overnight at 37° C., then 100 μL T-CE-040 and T-CE-063 antibody drug conjugates with different concentration gradients and the complete medium were added. After 120 hours, relative cell proliferation analysis was performed by adding 50 μL CellTiter-Glo® […] Cell Activation Reagent (CellTiter-GloB Luminescent, Promega).

[2] = system: Her2-positive human BT474 breast tumor cells; assay: Cytotoxicity assay (growth inhibition, CellTiter-Glo) on BT474
Description: as §1

[3] = system: human breast tumor cell strain MCF7-Her2 with stable-transfected Her2; assay: Cytotoxicity assay (growth inhibition, CellTiter-Glo) on MCF7-Her2
Description: as §1

[4] = Homo sapiens, MCF7, 120 h, read-out: Cytotoxicity assay IC50 MCF7, MCF-7 cells, 120 hours, CellTiter-Glo
[5] = Homo sapiens, BT-474, 120 h, read-out: Cytotoxicity assay IC50 BT474, BT474 cells, 120 hours, CellTiter-Glo
[6] = Homo sapiens, 120 h, read-out: Cytotoxicity assay IC50 MCF-Her2, MCF7-Her2 cells, 120 hours, CellTiter-Glo

SMILES | IC50 [1, 4] | IC50 [2, 5] | IC50 [3, 6] | further results
COc1cc2cc(c1Cl)N(C)C(=O)C[C@H](OC(=O)C(COCCSSC)OC)[C@]1(C)O[C@H]1[C@H](C)C1C[C@@](O)(NC(=O)O1)[C@H](OC)/C=C/C=C(\C)C2 (stereo partly drawn) [CE-056] | 17 nM | 39 nM | 217 nM | –
COc1cc2cc(c1Cl)N(C)C(=O)C[C@H](OC(=O)C1CCC(CSSC)OC1)[C@]1(C)O[C@H]1[C@H](C)C1C[C@@](O)(NC(=O)O1)[C@H](OC)/C=C/C=C(\C)C2 (stereo partly drawn) [CE-053-1] | 22 nM | 22 nM | 13 nM | –
COc1cc2cc(c1Cl)N(C)C(=O)C[C@H](OC(=O)[C@H](C)OCCOCCSC1CC(=O)N(CCC(=O)NCCOCCOCCC(=O)ON3C(=O)CCC3=O)C1=O)[C@]1(C)O[C@H]1[C@H](C)C1C[C@@](O)(NC(=O)O1)[C@H](OC)/C=C/C=C(\C)C2 (stereo partly drawn) [XDCE-M-001] | 330 nM | 456 nM | 182 nM | –
COc1cc2cc(c1Cl)N(C)C(=O)C[C@H](OC(=O)[C@H](C)OCCCSSC)[C@]1(C)O[C@H]1[C@H](C)[C@@H]1C[C@@](O)(NC(=O)O1)[C@H](OC)/C=C/C=C(\C)C2 [CE-027] | 39 nM | 15 nM | 23 nM | –
COc1cc2cc(c1Cl)N(C)C(=O)CC(OC(=O)[C@H](C)N(C)C(=O)CCC(SSC)C(C)C)[C@]1(C)O[C@H]1[C@H](C)[C@@H]1C[C@@](O)(NC(=O)O1)[C@H](OC)/C=C/C=C(\C)C2 (stereo partly drawn) [CE-022] | 10 nM | 13 nM | 6 nM | –
COc1cc2cc(c1Cl)N(C)C(=O)C[C@H](OC(=O)[C@@H](C)N(C)C(=O)CCSSC)C1(C)O[C@H]1[C@H](C)C1C[C@@](O)(NC(=O)O1)[C@H](OC)/C=C/C=C(\C)C2 (stereo partly drawn) [DM1-SMe, reference compound] | – | – | – | IC50 ([1]; Homo sapiens, MCF7, 120 h, read-out: Cytotoxicity assay IC50 MCF7): 9.5 nM; IC50 ([2]; Homo sapiens, BT-474, 120 h, read-out: Cytotoxicity assay IC50 BT474): 9.3 nM; IC50 ([3]; Homo sapiens, 120 h, read-out: Cytotoxicity assay IC50 MCF-Her2): 7.3 nM
COc1cc2cc(c1Cl)N(C)C(=O)C[C@H](OC(=O)[C@H](C)OCCCSC1CC(=O)N(C[C@H]3CC[C@H](C(=O)ON4C(=O)CCC4=O)CC3)C1=O)[C@]1(C)O[C@H]1[C@H](C)C1C[C@@](O)(NC(=O)O1)[C@H](OC)/C=C/C=C(\C)C2 (stereo partly drawn) [CE-035] | – | – | – | IC50 ([1]; read-out: Cytotoxicity assay IC50 MCF7, MCF-7 cells, 120 hours, CellTiter-Glo): 25.8 nM; IC50 ([2]; read-out: Cytotoxicity assay IC50 BT474, BT474 cells, 120 hours, CellTiter-Glo): 26.8 nM; IC50 ([3]; read-out: Cytotoxicity assay IC50 MCF-Her2, MCF7-Her2 cells, 120 hours, CellTiter-Glo): 15.1 nM
COc1cc2cc(c1Cl)N(C)C(=O)C[C@H](OC(=O)[C@H](C)OCCOCCOCCNC(=O)CBr)[C@]1(C)O[C@H]1[C@H](C)C1C[C@@](O)(NC(=O)O1)[C@H](OC)/C=C/C=C(\C)C2 [CE-050] | 14.4 nM | 26.1 nM | 7 nM | –
COc1cc2cc(c1Cl)N(C)C(=O)C[C@H](OC(=O)[C@@H](C)N(C)C(=O)CCS)C1(C)O[C@H]1[C@H](C)C1C[C@@](O)(NC(=O)O1)[C@H](OC)/C=C/C=C(\C)C2 (stereo partly drawn) [DM1, N2′-deacetyl-N2′-(3-mercapto-1-oxopropyl)maytansine, reference compound] | 16 nM | 21 nM | 14 nM | –
COc1cc2cc(c1Cl)N(C)C(=O)C[C@H](OC(=O)[C@H](C)OCCSC1CC(=O)N(C[C@H]3CC[C@H](C(=O)ON4C(=O)CCC4=O)CC3)C1=O)[C@]1(C)O[C@H]1[C@H](C)C1C[C@@](O)(NC(=O)O1)[C@H](OC)/C=C/C=C(\C)C2 (stereo partly drawn) [CE-037] | 136 nM | 49.3 nM | 70.6 nM | –
COc1cc2cc(c1Cl)N(C)C(=O)C[C@H](OC(=O)[C@H](C)OCCOCCOCCN1C(=O)C=CC1=O)[C@]1(C)O[C@H]1[C@H](C)C1C[C@@](O)(NC(=O)O1)[C@H](OC)/C=C/C=C(\C)C2 [CE-047] | 327 nM | 325 nM | 134 nM | –
COc1cc2cc(c1Cl)N(C)C(=O)C[C@H](OC(=O)[C@H]1CC[C@H](CSC3CC(=O)N(C[C@H]4CC[C@H](C(=O)ON5C(=O)CCC5=O)CC4)C3=O)CC1)[C@]1(C)O[C@H]1[C@H](C)C1C[C@@](O)(NC(=O)O1)[C@H](OC)/C=C/C=C(\C)C2 (stereo partly drawn) [CE-036] | 13.1 nM | 8.05 nM | 6.9 nM | –
COc1cc2cc(c1Cl)N(C)C(=O)C[C@H](OC(=O)[C@H](C)OCCOCCSC1CC(=O)N(CCC(=O)NCCOCCOCCOCCC(=O)ON3C(=O)CCC3=O)C1=O)[C@]1(C)O[C@H]1[C@H](C)C1C[C@@](O)(NC(=O)O1)[C@H](OC)/C=C/C=C(\C)C2 (stereo partly drawn) [XDCE-M-002] | 51.5 nM | 41.6 nM | 64.3 nM | –
